Laboratory results published in PubChem BioAssay AID1963451 (Molecular Pharmacology Branch, DTP, NCI, 2024).
“And” between values parts separate entries of the source, which are not always exact repeats. Equal values may be shown once.

System: 521955-158-R6-J3-PDC complex spheroid growth, % test/control
Experiment: Anticancer human tumor 521955-158-R6-J3-PDC patient-derived pancreatic carcinoma cell line growth inhibition [Asc]
Settings: for viability, T/C: stronger effect = lower value
Method in brief: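 Spheroid model: tumor line + HUVEC + hMSC. Single agents and combinations; top conc. at/near clinical Cmax (10 microM if undetermined), half-log dilutions. DMSO stocks at 800-fold test concentration.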
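Further: spheroids exposed to compounds for 7 days.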
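Wherever viability, T/C is given: 100% = DMSO vehicle control wells.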

## NC(=O)C(=Cn1cnc(-c2cc(C(F)(F)F)cc(C(F)(F)F)c2)n1)c1cncnc1 + CCN1C(C(=O)NC23CCC(C(=O)O)(CC2)CC3)C(c2cccc(Cl)c2F)C2(C(=O)Nc3cc(Cl)ccc32)C12CCCCC2
Curve of first compound, second compound 0.00949 µM
  IC50: > 0.3 µM
Curve of first compound, second compound 0.03 µM
  IC50: > 0.3 µM
Curve of first compound, second compound 0.0949 µM
  IC50: > 0.3 µM
Curve of first compound, second compound 0.3 µM
  IC50: > 0.3 µM
Curve of first compound, second compound 0.949 µM
  IC50: > 0.3 µM
Curve of first compound, second compound 3 µM
  IC50: > 0.3 µM
Second compound 0.00949 µM, first compound 0.000949 µM
  viability, T/C: 99.6%
Second compound 0.00949 µM, first compound 0.003 µM
  viability, T/C: 86.8%
Second compound 0.00949 µM, first compound 0.00949 µM
  viability, T/C: 77.3%
Second compound 0.00949 µM, first compound 0.03 µM
  viability, T/C: 99%
Second compound 0.00949 µM, first compound 0.0949 µM
  viability, T/C: 82.9%
Second compound 0.00949 µM, first compound 0.3 µM
  viability, T/C: 93.2%
Second compound 0.03 µM, first compound 0.000949 µM
  viability, T/C: 93.7%
Second compound 0.03 µM, first compound 0.003 µM
  viability, T/C: 83.7%
Second compound 0.03 µM, first compound 0.00949 µM
  viability, T/C: 69.6%
Second compound 0.03 µM, first compound 0.03 µM
  viability, T/C: 86%
Second compound 0.03 µM, first compound 0.0949 µM
  viability, T/C: 103%
Second compound 0.03 µM, first compound 0.3 µM
  viability, T/C: 102%
Second compound 0.0949 µM, first compound 0.000949 µM
  viability, T/C: 88.8%
Second compound 0.0949 µM, first compound 0.003 µM
  viability, T/C: 87.3%
Second compound 0.0949 µM, first compound 0.00949 µM
  viability, T/C: 78.1%
Second compound 0.0949 µM, first compound 0.03 µM
  viability, T/C: 85.1%
Second compound 0.0949 µM, first compound 0.0949 µM
  viability, T/C: 98.8%
Second compound 0.0949 µM, first compound 0.3 µM
  viability, T/C: 113%
Second compound 0.3 µM, first compound 0.000949 µM
  viability, T/C: 88.7%
Second compound 0.3 µM, first compound 0.003 µM
  viability, T/C: 76.9%
Second compound 0.3 µM, first compound 0.00949 µM
  viability, T/C: 85.8%
Second compound 0.3 µM, first compound 0.03 µM
  viability, T/C: 82.2%
Second compound 0.3 µM, first compound 0.0949 µM
  viability, T/C: 117%
Second compound 0.3 µM, first compound 0.3 µM
  viability, T/C: 107%
Second compound 0.949 µM, first compound 0.000949 µM
  viability, T/C: 94%
Second compound 0.949 µM, first compound 0.003 µM
  viability, T/C: 78.3%
Second compound 0.949 µM, first compound 0.00949 µM
  viability, T/C: 95.1%
Second compound 0.949 µM, first compound 0.03 µM
  viability, T/C: 78.7%
Second compound 0.949 µM, first compound 0.0949 µM
  viability, T/C: 105%
Second compound 0.949 µM, first compound 0.3 µM
  viability, T/C: 98.1%
Second compound 3 µM, first compound 0.000949 µM
  viability, T/C: 87.2%
Second compound 3 µM, first compound 0.003 µM
  viability, T/C: 97.7%
Second compound 3 µM, first compound 0.00949 µM
  viability, T/C: 69.6%
Second compound 3 µM, first compound 0.03 µM
  viability, T/C: 75.7%
Second compound 3 µM, first compound 0.0949 µM
  viability, T/C: 99.8%
Second compound 3 µM, first compound 0.3 µM
  viability, T/C: 84.4%

## Cc1nc(N2CCC3(CC2)COC(C)C3N)c(CO)nc1Sc1ccnc(N)c1Cl (stereo not drawn) + CNC(C)C(=O)NC1CN(S(=O)(=O)c2cccc(S(=O)(=O)N3CCC4CCC(C(=O)NC(c5ccccc5)c5ccccc5)N4C(=O)C(NC(=O)C(C)NC)C3)c2)CCC2CCC(C(=O)NC(c3ccccc3)c3ccccc3)N2C1=O
Curve of first compound, second compound 0.00316 µM
  IC50: > 3 µM
Curve of first compound, second compound 0.01 µM
  IC50: > 3 µM
Curve of first compound, second compound 0.0316 µM
  IC50: > 3 µM
Curve of first compound, second compound 0.1 µM
  IC50: > 3 µM
Curve of first compound, second compound 0.316 µM
  IC50: > 3 µM
Curve of first compound, second compound 1 µM
  IC50: > 3 µM
Second compound 0.00316 µM, first compound 0.00949 µM
  viability, T/C: 99.5%
Second compound 0.00316 µM, first compound 0.03 µM
  viability, T/C: 88.7%
Second compound 0.00316 µM, first compound 0.0949 µM
  viability, T/C: 73.2%
Second compound 0.00316 µM, first compound 0.3 µM
  viability, T/C: 86.7%
Second compound 0.00316 µM, first compound 0.949 µM
  viability, T/C: 73.4%
Second compound 0.00316 µM, first compound 3 µM
  viability, T/C: 55%
Second compound 0.01 µM, first compound 0.00949 µM
  viability, T/C: 109%
Second compound 0.01 µM, first compound 0.03 µM
  viability, T/C: 74%
Second compound 0.01 µM, first compound 0.0949 µM
  viability, T/C: 79.4%
Second compound 0.01 µM, first compound 0.3 µM
  viability, T/C: 87.7%
Second compound 0.01 µM, first compound 0.949 µM
  viability, T/C: 69.9%
Second compound 0.01 µM, first compound 3 µM
  viability, T/C: 57.9%
Second compound 0.0316 µM, first compound 0.00949 µM
  viability, T/C: 90%
Second compound 0.0316 µM, first compound 0.03 µM
  viability, T/C: 83.1%
Second compound 0.0316 µM, first compound 0.0949 µM
  viability, T/C: 81.1%
Second compound 0.0316 µM, first compound 0.3 µM
  viability, T/C: 73.4%
Second compound 0.0316 µM, first compound 0.949 µM
  viability, T/C: 63.6%
Second compound 0.0316 µM, first compound 3 µM
  viability, T/C: 55%
Second compound 0.1 µM, first compound 0.00949 µM
  viability, T/C: 94.6%
Second compound 0.1 µM, first compound 0.03 µM
  viability, T/C: 79.5%
Second compound 0.1 µM, first compound 0.0949 µM
  viability, T/C: 82.3%
Second compound 0.1 µM, first compound 0.3 µM
  viability, T/C: 68.5%
Second compound 0.1 µM, first compound 0.949 µM
  viability, T/C: 60.1%
Second compound 0.1 µM, first compound 3 µM
  viability, T/C: 60.1%
Second compound 0.316 µM, first compound 0.00949 µM
  viability, T/C: 82.9%
Second compound 0.316 µM, first compound 0.03 µM
  viability, T/C: 74.9%
Second compound 0.316 µM, first compound 0.0949 µM
  viability, T/C: 77.4%
Second compound 0.316 µM, first compound 0.3 µM
  viability, T/C: 67.6%
Second compound 0.316 µM, first compound 0.949 µM
  viability, T/C: 62.5%
Second compound 0.316 µM, first compound 3 µM
  viability, T/C: 52.9%
Second compound 1 µM, first compound 0.00949 µM
  viability, T/C: 82.7%
Second compound 1 µM, first compound 0.03 µM
  viability, T/C: 79.8%
Second compound 1 µM, first compound 0.0949 µM
  viability, T/C: 74.6%
Second compound 1 µM, first compound 0.3 µM
  viability, T/C: 73%
Second compound 1 µM, first compound 0.949 µM
  viability, T/C: 73.9%
Second compound 1 µM, first compound 3 µM
  viability, T/C: 57.6%

## C=C(F)C(=O)N1CCN(c2nc(OCC3CCCN3C)nc3c2CCN(c2cccc4cccc(Cl)c24)C3)CC1CC#N (stereo not drawn)
Compound 0.0316 µM
  viability, T/C: 102% (2×) and 93.7%
Compound 0.1 µM
  viability, T/C: 93.2% and 115% and 87.3%
Compound 0.316 µM
  viability, T/C: 78.6% and 89.8% and 90.9%
Compound 1 µM
  viability, T/C: 89.2% and 87.9% and 95.7%
Compound 3.16 µM
  viability, T/C: 83.7% and 86.3% and 93.3%
Compound 10 µM
  viability, T/C: 0.33% and 0.31% and 0.93%
Curve of compound
  IC50: 5.04 µM and 4.98 µM and 5.38 µM

## COc1c(OCCCN2CCOCC2)ccc2c3n(c(=NC(=O)c4cnc(N)nc4)nc12)CCN3
Compound 0.00316 µM
  viability, T/C: 83.2% and 98.8% and 91.5%
Compound 0.01 µM
  viability, T/C: 97.2% and 78.8% and 72.1%
Compound 0.0316 µM
  viability, T/C: 76.5% and 75.6% and 63.8%
Compound 0.1 µM
  viability, T/C: 62.5% and 81.4% and 64.8%
Compound 0.316 µM
  viability, T/C: 41.9% and 61.3% and 48.6%
Compound 1 µM
  viability, T/C: 34.7% and 40% and 32.8%
Curve of compound
  IC50: 0.592 µM and 0.275 µM and 0.177 µM
